This is an account of results in ChEMBL document CHEMBL1149998, “Tannins as selective inhibitors of protein kinase C” (Bioorg Med Chem Lett, 1992).

For test [1], the target named is Protein kinase C, PKC; classical/novel (Homo sapiens) (UniProt O94806+P17252+P05129+Q05655+P05771+Q02156+P24723+Q15139+Q04759). The test can be described thus: Displacement of phorbol [3H]PDBu from protein kinase C; A - Did displace phorbol (PDBu) at 50 uM or less. It counts as protein assay.
A further test deals with Protein kinase C (PKC). As to the kind of experiment: Inhibitory activity against protein kinase C (PKC). Type of test: protein assay, Homo sapiens.
A short description of test [2]: Inhibition of c-AMP kinase PKA. Further details: species or system Bos taurus; call rule not given here.
Test [3] can be described thus: Inhibitory activity against c-AMP kinase; Did not inhibit c-AMP kinase.

As for `O=C(O[C@@H]1O[C@H]2COC(=O)c3cc(O)c(O)c(O)c3-c3c(cc(O)c(O)c3O)C(=O)O[C@H]2[C@@H]2OC(=O)c3cc(O)c(O)c(O)c3-c3c(cc(O)c(O)c3O)C(=O)O[C@H]12)c1cc(O)c(O)c(Oc2c(O)c(O)c(O)c3c2C(=O)O[C@H]2[C@@H]4OC(=O)c5cc(O)c(O)c(O)c5-c5c(cc(O)c(O)c5O)C(=O)O[C@@H]4[C@H](OC(=O)c4cc(O)c(O)c(O)c4)O[C@H]2COC(=O)c2cc(O)c(O)c(O)c2-3)c1`, in test [1], the Phorbol displacement is less than 50 µM. In addition, the IC50 against Protein kinase C (PKC) turned out to be 5 µM; in test [2] it was 48 µM.
As to `O=C1OCC2OC(=O)c3cc(O)c(O)c(O)c3-c3c(O)c(O)c(O)c4c3C(=O)OC(C2OC(=O)c2cc(O)c(O)c(O)c2-c2c1cc(O)c(O)c2O)C1OC(=O)C2C4=C(O)C(=O)C23Oc2cc(O)c4c(c2[C@H]13)O[C@H](c1ccc(O)c(O)c1)[C@@H](O)C4` (some centres not stated), the Phorbol displacement in test [1] is less than 50 µM. The IC50 against Protein kinase C (PKC) is 4 µM; in test [2], 44 µM.
As for `Oc1cc(O)c2c(c1)O[C@H](c1ccc(O)c(O)c1)[C@H](O)[C@H]2c1c(O)cc(O)c2c1O[C@@]1(c3ccc(O)c(O)c3)Oc3cc(O)c4c(c3C2[C@H]1O)O[C@H](c1ccc(O)c(O)c1)[C@H](O)C4c1c(O)cc(O)c2c1O[C@H](c1ccc(O)c(O)c1)[C@H](O)C2` (some centres not stated), the Phorbol displacement in test [1] is less than 50 µM. The IC50 against Protein kinase C (PKC) was 15 µM; in test [3] it was “Not Active”.
In turn, `Oc1cc(O)c2c(c1)O[C@@]1(c3ccc(O)c(O)c3)Oc3cc(O)c4c(c3C2[C@H]1O)O[C@H](c1ccc(O)c(O)c1)[C@H](O)C4c1c(O)cc(O)c2c1O[C@H](c1ccc(O)c(O)c1)[C@H](O)C2` (some centres not stated) showed a Phorbol displacement in test [1] of less than 50 µM. In addition, the IC50 at Protein kinase C (PKC) is 30 µM; in test [3], “Not Active”.
In test [1], `O=C(OC[C@H]1O[C@H](OC(=O)c2cc(O)c(O)c(O)c2)[C@H](OC(=O)c2cc(O)c(O)c(O)c2)[C@@H](OC(=O)c2cc(O)c(O)c(O)c2)[C@@H]1O)c1cc(O)c(O)c(O)c1` returned a Phorbol displacement of less than 50 µM. Also, the IC50 is 20 µM against Protein kinase C (PKC) and “Not Active” in test [3].
`O=C1O[C@H]2[C@H](OC(=O)c3cc(O)c(O)c(O)c3)[C@@H](OC(=O)c3cc(O)c(O)c4c3C3C1=CC(=O)C(O)(O)C3(O)O4)[C@@H](OC(=O)c1cc(O)c(O)c(O)c1)O[C@@H]2COC(=O)c1cc(O)c(O)c(O)c1` (some centres not stated) showed a Phorbol displacement in test [1] of less than 50 µM. Besides, the results for the IC50 (at Protein kinase C (PKC); in test [3]) were 16 µM and “Not Active”, respectively.
Regarding `O=C(O[C@@H]1O[C@@H]2COC(=O)c3cc(Oc4c(C(=O)O)cc(O)c(O)c4O)c(O)c(O)c3-c3c(cc(O)c(O)c3O)C(=O)O[C@H]([C@H]1O)[C@@H]2O)c1cc(O)c(O)c(O)c1`, the Phorbol displacement in test [1] was less than 50 µM. In addition, the IC50 against Protein kinase C (PKC) stood at 20 µM; in test [2] it was 100 µM.
In test [1], `O=C1OCC2OC(=O)c3cc(O)c(O)c(O)c3-c3c(O)c(O)c(O)c4c3C(=O)OC(C2OC(=O)c2cc(O)c(O)c(O)c2-c2c1cc(O)c(O)c2O)C1OC(=O)c2c-4c(O)c(O)c(O)c2[C@@H]1O` (some centres not stated) yielded a Phorbol displacement of less than 50 µM. Moreover, the IC50 against Protein kinase C (PKC) is 4 µM; in test [3], “Not Active”.
In test [1], `O=C1O[C@H]2[C@@H]3OC(=O)c4cc(O)c(O)c(O)c4-c4c(cc(Oc5c(C(=O)O)cc(O)c(O)c5O)c(O)c4O)C(=O)OC[C@H]2O[C@@H](OC(=O)c2cc(O)c(O)c(O)c2)[C@@H]3OC(=O)c2cc(O)c(O)c3c2C2C1=CC(=O)C(O)(O)C2(O)O3` (some centres not stated) [E181] came in with a Phorbol displacement of less than 50 µM. Also, the values for the IC50 (on Protein kinase C (PKC); in test [2]) were 16 µM and 65 µM, respectively.
The compound `O=C(OC1Cc2c(O)cc(O)cc2O[C@@H]1c1ccc(O)c(O)c1)c1cc(O)c(O)c(O)c1` (some centres not stated) gave a Phorbol displacement in test [1] of less than 50 µM. In addition, the IC50 against Protein kinase C (PKC) was 48 µM; in test [3] it was “Not Active”.
Compound `O=C(O[C@@H]1[C@@H](c2c(O)cc(O)c3c2O[C@H](c2ccc(O)c(O)c2)[C@H](OC(=O)c2cc(O)c(O)c(O)c2)C3)c2c(O)cc(O)cc2O[C@@H]1c1ccc(O)c(O)c1)c1cc(O)c(O)c(O)c1` showed a Phorbol displacement in test [1] of less than 50 µM. Also, the IC50 was 4 µM against Protein kinase C (PKC) and “Not Active” in test [3].
In turn, `O=C1OCC2OC(=O)c3cc(O)c(O)c(O)c3-c3c(O)c(O)c(O)c4c3C(=O)OC(C2OC(=O)c2cc(O)c(O)c(O)c2-c2c1cc(O)c(O)c2O)C1OC(=O)c2c-4c(O)c(O)c(O)c2[C@H]1O` (some centres not stated) yielded a Phorbol displacement in test [1] of less than 50 µM. Also, the IC50 is 8 µM against Protein kinase C (PKC) and “Not Active” in test [3].
In turn, `CC1(C)CC[C@]2(C(=O)O[C@@H]3O[C@H](CO)[C@@H](O)[C@H](O)[C@H]3O)CC[C@]3(C)C(=CC[C@@H]4[C@@]5(C)C[C@@H](O)[C@@H]6OC(=O)c7cc(O)c(O)c(O)c7-c7c(cc(O)c(O)c7O)C(=O)OC[C@@]6(CO)C5CC[C@]43C)C2C1` (some centres not stated) showed a Phorbol displacement in test [1] of less than 50 µM. Moreover, the IC50 against Protein kinase C (PKC) is 18 µM; in test [3] it was “Not Active”.
The matching figures for `O=C(OC1Cc2c(O)cc(O)c([C@H]3c4c(O)cc(O)c([C@H]5c6c(O)cc(O)cc6O[C@H](c6ccc(O)c(O)c6)[C@@H]5OC(=O)c5cc(O)c(O)c(O)c5)c4O[C@H](c4ccc(O)c(O)c4)C3OC(=O)c3cc(O)c(O)c(O)c3)c2O[C@@H]1c1ccc(O)c(O)c1)c1cc(O)c(O)c(O)c1` (some centres not stated): less than 50 µM, 2 µM and “Not Active”.
In test [1], `O=C(O[C@H]1[C@H](O)C[C@](OC(=O)c2cc(O)c(O)c(O)c2)(C(=O)O)C[C@H]1OC(=O)c1cc(O)c(O)c(O)c1)c1cc(O)c(O)c(O)c1` registered a Phorbol displacement of less than 50 µM. Also, the IC50 on Protein kinase C (PKC) is more than 100 µM; in test [3], “Not Active”.
For `O=C(OC[C@H]1O[C@@H](OC(=O)c2cc(O)c(O)c(O)c2)[C@H](OC(=O)c2cc(O)c(O)c(O)c2)[C@@H](OC(=O)c2cc(O)c(O)c(O)c2)[C@@H]1OC(=O)c1cc(O)c(O)c(O)c1)c1cc(O)c(O)c(O)c1` [PENTAGALLOYL GLUCOSE], the Phorbol displacement in test [1] was less than 50 µM. The same compound came in with an IC50 against Protein kinase C (PKC) of 4 µM.
Compound `O=C(OC[C@H]1O[C@@H](O)[C@H](OC(=O)c2cc(O)c(O)c(O)c2)[C@@H](OC(=O)c2cc(O)c(O)c(O)c2)[C@@H]1OC(=O)c1cc(O)c(O)c(O)c1)c1cc(O)c(O)c(O)c1` registered a Phorbol displacement in test [1] of less than 50 µM. Moreover, the IC50 on Protein kinase C (PKC) was 82 µM; in test [3], “Not Active”.
The compound `C=C1O[C@H]2[C@@H]3OC(=O)c4cc(O)c(O)c(O)c4-c4c(cc(O)c(O)c4O)C(=O)OC[C@H]2O[C@@H](OC(=O)c2cc(O)c(O)c(O)c2)[C@@H]3OC(=O)c2cc(O)c(O)c3c2C2C(O)(O3)C3(O)OC4(C(=O)OC5C(O)COC54O)C12CC3=O` (some centres not stated) yielded a Phorbol displacement in test [1] of less than 50 µM. For the same compound, the figures for the IC50 (at Protein kinase C (PKC); in test [3]) were 17 µM and “Not Active”, respectively.
The compound `CC1(C)CC[C@]2(C(=O)O)CC[C@]3(C)C(=CCC4[C@@]5(C)C[C@@H](O)[C@@H]6OC(=O)c7cc(O)c(O)c(O)c7-c7c(cc(O)c(O)c7O)C(=O)OC[C@@]6(CO)C5CC[C@]43C)C2C1` (some centres not stated) returned a Phorbol displacement in test [1] of less than 50 µM. Further, the IC50 against Protein kinase C (PKC) was 23 µM; in test [3], “Not Active”.
`O=C(O[C@H]1[C@H](O)C[C@](OC(=O)c2cc(O)c(O)c(O)c2)(C(=O)O)C[C@H]1O)c1cc(O)c(O)c(O)c1`: the IC50 on Protein kinase C (PKC) is more than 100 µM; in test [3] it was “Not Active”.
As to `Oc1cc(O)c2c(c1)O[C@H](c1ccc(O)c(O)c1)[C@H](O)[C@H]2c1c(O)cc(O)c2c1O[C@H](c1ccc(O)c(O)c1)[C@H](O)[C@H]2c1c(O)cc(O)c2c1O[C@H](c1ccc(O)c(O)c1)[C@H](O)C2` [PROCYANIDIN C1], the Phorbol displacement in test [1] is less than 50 µM. For the same compound, the IC50 on Protein kinase C (PKC) was 40 µM; in test [3], “Not Active”.
For the compound `O=C1O[C@H]2[C@@H]3OC(=O)c4cc(O)c(O)c(O)c4-c4c(cc(O)c(O)c4O)C(=O)OC[C@H]2O[C@H](OC(=O)c2cc(O)c(O)c(O)c2)[C@@H]3OC(=O)c2cc(O)c(O)c3c2C2C1=CC(=O)C(O)(O)C2(O)O3` (some centres not stated), the IC50 was 11 µM at Protein kinase C (PKC) and “Not Active” in test [3].
Turning to `O=C(O[C@@H]1C[C@](OC(=O)c2cc(O)c(O)c(O)c2)(C(=O)O)C[C@@H](OC(=O)c2cc(O)c(O)c(O)c2)[C@H]1OC(=O)c1cc(O)c(O)c(O)c1)c1cc(O)c(O)c(O)c1`, in test [1], the Phorbol displacement is less than 50 µM. Further, the IC50 on Protein kinase C (PKC) was 64 µM; in test [3], “Not Active”.
`O=C(O[C@@H]1O[C@@H]2COC(=O)c3cc(O)c(O)c(O)c3-c3c(cc(O)c(O)c3O)C(=O)O[C@H]([C@H]1OC(=O)c1cc(O)c(O)c(O)c1)[C@@H]2OC(=O)c1cc(O)c(O)c(O)c1)c1cc(O)c(O)c(O)c1` [PUNICAFOLIN] gave a Phorbol displacement in test [1] of less than 50 µM. Also, the IC50 is 4 µM against Protein kinase C (PKC) and “Not Active” in test [3].
Compound `O=C1OCC2OC(=O)c3cc(O)c(O)c(O)c3-c3c(O)c(O)c(O)c4c3C(=O)OC(C2OC(=O)c2cc(O)c(O)c(O)c2-c2c1cc(O)c(O)c2O)C1OC(=O)c2c-4c(O)c(O)c(O)c2[C@@H]1[C@@]1(O)O[C@@H](CO)[C@@H](O)[C@H]1O` (some centres not stated) gave a Phorbol displacement in test [1] of less than 50 µM. For the same compound, the IC50 on Protein kinase C (PKC) is 12 µM; in test [3], “Not Active”.

A word on the IC50: it is the concentration at which inhibition is half-maximal.
